Measured values from patent US11110209B2, “Intraluminal therapy system for gastrointestinal infections” (MACKAY MEDICAL FOUNDATION THE PRESBYTERIAN CHURCH IN TAIWAN …, priority 2017, dated 2021).

Assay: Clinical study: gastric juice pH after irrigation
Assay type: in vivo
Settings: patients; acetylcysteine (12 mg/ml) solution irrigation of gastric mucosa after two tablets of sublingual Takepron
Protocol: Ten patients having H. pylori infection without prior eradication therapy were enrolled. Before the intraluminal therapy, two tablets of proton pump inhibitor (Takepron) were sublingually administered to the patient. Using the system of the invention, the gastric mucosa was irrigated with acetylcysteine (12 mg/ml) solution to remove the acid and mucous on the gastric mucosa. The pH levels before and after irrigation were measured. The acidity of the gastric juice could be well controlled at around pH 5.0 after irrigation. The total dosage of acetylcysteine was less than 140 mg/kg. Then amoxicillin, metronidazole, clarithromycin, sucrate gel and distilled water were mixed to form a complex. […] The viscosities of the complexes were shown below.

## CC(=O)N[C@@H](CS)C(=O)O [acetylcysteine]
  pH of gastric juice after irrigation: ~5.0 pH
